#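 Method: 48-hour compound exposure of cells in 96-well plates, five concentrations, linear interpolation of endpoints. Definition used: TGI = concentration required for complete inhibition of growth.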
# Experiments:
# Test in all cases: NCI tumour cell line growth inhibition, 48 h
# NCI-H522 lung = test system: NCI-H522 lung
# HOP-92 NSCLC = test system: HOP-92 NSCLC
# KM12 colon = test system: KM12 colon
# HS 578T breast = test system: HS 578T breast
# HCT-15 colon = test system: HCT-15 colon
# UACC-62 melanoma = test system: UACC-62 melanoma
# SK-MEL-28 melanoma = test system: SK-MEL-28 melanoma
# LOX IMVI melanoma = test system: LOX IMVI melanoma
# NCI-H460 lung = test system: NCI-H460 lung
# COLO 205 colon = test system: COLO 205 colon
# MDA-N = test system: MDA-N
# MDA-MB-435 = test system: MDA-MB-435
# MALME-3M melanoma = test system: MALME-3M melanoma
# OVCAR-8 ovarian = test system: OVCAR-8 ovarian
# HCT-116 colon = test system: HCT-116 colon
# CAKI-1 renal = test system: CAKI-1 renal
# A549 NSCLC = test system: A549 NSCLC
# TK-10 renal = test system: TK-10 renal
# UO-31 renal = test system: UO-31 renal
# BT-549 breast = test system: BT-549 breast
# U251 CNS = test system: U251 CNS
# NCI-H226 lung = test system: NCI-H226 lung
# SF-268 CNS = test system: SF-268 CNS
# IGROV1 ovarian = test system: IGROV1 ovarian
# DU-145 prostate = test system: DU-145 prostate
# SK-OV-3 ovarian = test system: SK-OV-3 ovarian
# PC-3 prostate = test system: PC-3 prostate
# SK-MEL-2 melanoma = test system: SK-MEL-2 melanoma
# SNB-19 CNS = test system: SNB-19 CNS
# OVCAR-4 ovarian = test system: OVCAR-4 ovarian
# ACHN renal = test system: ACHN renal
# MCF7 breast = test system: MCF7 breast
# SW-620 colon = test system: SW-620 colon
# OVCAR-5 ovarian = test system: OVCAR-5 ovarian
# HOP-62 NSCLC = test system: HOP-62 NSCLC
# OVCAR-3 ovarian = test system: OVCAR-3 ovarian
# SF-295 CNS = test system: SF-295 CNS
# 786-0 renal = test system: 786-0 renal
# MDA-MB-231 breast = test system: MDA-MB-231 breast
# NCI-H23 lung = test system: NCI-H23 lung
# CCRF-CEM leukemia = test system: CCRF-CEM leukemia
# SK-MEL-5 melanoma = test system: SK-MEL-5 melanoma
# SR leukemia = test system: SR leukemia
# RXF 393 renal = test system: RXF 393 renal
# SNB-75 CNS = test system: SNB-75 CNS
# HL-60(TB) leukemia = test system: HL-60(TB) leukemia
# SN12C renal = test system: SN12C renal
# EKVX NSCLC = test system: EKVX NSCLC
# M14 melanoma = test system: M14 melanoma
# RPMI-8226 leukemia = test system: RPMI-8226 leukemia
# T-47D breast = test system: T-47D breast
# K-562 leukemia = test system: K-562 leukemia
# MOLT-4 leukemia = test system: MOLT-4 leukemia
# SF-539 CNS = test system: SF-539 CNS
# NCI/ADR-RES ovarian = test system: NCI/ADR-RES ovarian
# HT29 colon = test system: HT29 colon
# A498 renal = test system: A498 renal
# HCC-2998 colon = test system: HCC-2998 colon
structure (smiles),measurement,setting,value
Cc1cc2nc3[nH]c4c(Cl)cc(Cl)cc4c3nc2cc1C,TGI,NCI-H522 lung,> 100 µM
same,TGI,HOP-92 NSCLC,> 100 µM
same,TGI,KM12 colon,> 100 µM
same,TGI,HS 578T breast,> 100 µM
same,TGI,HCT-15 colon,> 100 µM
same,TGI,UACC-62 melanoma,> 100 µM
same,TGI,SK-MEL-28 melanoma,> 100 µM
same,TGI,LOX IMVI melanoma,> 100 µM
same,TGI,NCI-H460 lung,> 100 µM
same,TGI,COLO 205 colon,> 100 µM
same,TGI,MDA-N,> 100 µM
same,TGI,MDA-MB-435,> 100 µM
same,TGI,MALME-3M melanoma,> 100 µM
same,TGI,OVCAR-8 ovarian,> 100 µM
same,TGI,HCT-116 colon,> 100 µM
same,TGI,CAKI-1 renal,> 100 µM
same,TGI,A549 NSCLC,> 100 µM
same,TGI,TK-10 renal,56.4 µM
same,TGI,UO-31 renal,> 100 µM
same,TGI,BT-549 breast,> 100 µM
same,TGI,U251 CNS,> 100 µM
same,TGI,NCI-H226 lung,> 100 µM
same,TGI,SF-268 CNS,> 100 µM
same,TGI,IGROV1 ovarian,> 100 µM
same,TGI,DU-145 prostate,> 100 µM
same,TGI,SK-OV-3 ovarian,> 100 µM
same,TGI,PC-3 prostate,> 100 µM
same,TGI,SK-MEL-2 melanoma,> 100 µM
same,TGI,SNB-19 CNS,> 100 µM
same,TGI,OVCAR-4 ovarian,> 100 µM
same,TGI,ACHN renal,> 100 µM
same,TGI,MCF7 breast,> 100 µM
same,TGI,SW-620 colon,> 100 µM
same,TGI,OVCAR-5 ovarian,> 100 µM
same,TGI,HOP-62 NSCLC,> 100 µM
same,TGI,OVCAR-3 ovarian,> 100 µM
same,TGI,SF-295 CNS,> 100 µM
same,TGI,786-0 renal,> 100 µM
same,TGI,MDA-MB-231 breast,> 100 µM
same,TGI,NCI-H23 lung,> 100 µM
same,TGI,CCRF-CEM leukemia,> 100 µM
same,TGI,SK-MEL-5 melanoma,> 100 µM
same,TGI,SR leukemia,> 100 µM
same,TGI,RXF 393 renal,> 100 µM
same,TGI,SNB-75 CNS,42 µM
same,TGI,HL-60(TB) leukemia,> 100 µM
same,TGI,SN12C renal,> 100 µM
same,TGI,EKVX NSCLC,> 100 µM
same,TGI,M14 melanoma,> 100 µM
same,TGI,RPMI-8226 leukemia,> 100 µM
same,TGI,T-47D breast,> 100 µM
same,TGI,K-562 leukemia,> 100 µM
same,TGI,MOLT-4 leukemia,> 100 µM
same,TGI,SF-539 CNS,> 100 µM
same,TGI,NCI/ADR-RES ovarian,> 100 µM
same,TGI,HT29 colon,> 100 µM
same,TGI,A498 renal,> 100 µM
Cn1c(CCC2(C)Cc3ccccc3C(=O)O2)cc2ccccc2c1=O (centres undefined),TGI,NCI-H522 lung,44.2 µM
same,TGI,HOP-92 NSCLC,> 100 µM
same,TGI,KM12 colon,23.3 µM
same,TGI,HS 578T breast,> 100 µM
same,TGI,HCT-15 colon,> 100 µM
same,TGI,SK-MEL-28 melanoma,76.6 µM
same,TGI,NCI-H460 lung,76.8 µM
same,TGI,COLO 205 colon,84 µM
same,TGI,MDA-N,49.8 µM
same,TGI,MDA-MB-435,41.9 µM
same,TGI,MALME-3M melanoma,> 100 µM
same,TGI,OVCAR-8 ovarian,> 100 µM
same,TGI,CAKI-1 renal,51.6 µM
same,TGI,A549 NSCLC,> 100 µM
same,TGI,UO-31 renal,37.7 µM
same,TGI,BT-549 breast,44 µM
same,TGI,U251 CNS,> 100 µM
same,TGI,NCI-H226 lung,54.7 µM
same,TGI,HCC-2998 colon,> 100 µM
same,TGI,IGROV1 ovarian,86.6 µM
same,TGI,DU-145 prostate,59.8 µM
same,TGI,SK-OV-3 ovarian,65.7 µM
same,TGI,PC-3 prostate,46.5 µM
same,TGI,SK-MEL-2 melanoma,64.9 µM
same,TGI,SNB-19 CNS,> 100 µM
same,TGI,OVCAR-4 ovarian,> 100 µM
same,TGI,MCF7 breast,56.3 µM
same,TGI,OVCAR-5 ovarian,> 100 µM
same,TGI,HOP-62 NSCLC,48 µM
same,TGI,OVCAR-3 ovarian,54 µM
same,TGI,SF-295 CNS,> 100 µM
same,TGI,786-0 renal,> 100 µM
same,TGI,MDA-MB-231 breast,> 100 µM
same,TGI,NCI-H23 lung,83 µM
same,TGI,CCRF-CEM leukemia,27 µM
same,TGI,SK-MEL-5 melanoma,30.9 µM
same,TGI,SR leukemia,> 100 µM
same,TGI,RXF 393 renal,64.4 µM
same,TGI,SNB-75 CNS,58.3 µM
same,TGI,HL-60(TB) leukemia,> 100 µM
same,TGI,SN12C renal,> 100 µM
same,TGI,M14 melanoma,33.5 µM
same,TGI,RPMI-8226 leukemia,48 µM
same,TGI,T-47D breast,83.3 µM
same,TGI,SF-539 CNS,74.4 µM
same,TGI,NCI/ADR-RES ovarian,> 100 µM
same,TGI,A498 renal,> 100 µM

# — PubChem BioAssay (NCI)
